# Data taken from US10576050B2, “Methods and compositions for treatment of cancer” (ONCONOVA THERAPEUTICS, INC., priority 2012, dated 2020).
# Where “and” joins values, the source holds several entries; their conditions need not be identical. Identical values can stand only once.
# Assays:
# [1] = Phase 1 oral bioavailability study of Rigosertib soft gelatin capsule in MDS patients, fasted and fed, vs IV; type: in vivo, human; settings: for AUC / Cmax / Tmax / half-life / bioavailability: human, plasma, MDS patients
# Experimental: A Phase 1 study was conducted to assess oral bioavailability of a novel oral ON 01910.Na (Rigosertib) soft gelatin capsule formulation of Example 1 in MDS patients under fasted and fed conditions. This was a single-dose, three-treatment, three-period sequential design for studying the effects of food on the bioavailability of an immediate-release soft gelatin capsule formulation. The following dosing groups were tested in 12 patients: IV Dose 800 mg over 24 hours and oral dose 560 mg (2×280 mg capsules) under fasting and fed conditions. Plasma samples were collected pre-dose, over 32 hours (IV dose) or 8 hours (oral dose) after dose initiation. Rigosertib plasma levels were analyzed by a validated LC/MS/MS method. Pharmacokinetic parameters were estimated by non-compartmental analysis (WinNonlin®).
# [2] = Phase 1 dose escalation study of oral ON 01910.Na in MDS patients refractory to ESA, lenalidomide and DNA methyltransferase inhibitors
# Experimental: FIG. 1: Safety and efficacy of Rigosertib (ON 01910.Na) was determined in a dose escalation study in MDS patients refractory to ESA, lenalidomide and DNA Methyltransferase inhibitors. ESA was allowed as concomitant medication. The drug dose was escalated based on a defined escalation dose scheme (70 mg, 140 mg, 280 mg, 560 mg, and 700 mg). Three patients were treated with single escalating weekly doses of oral Rigosertib to determine the oral absorption of Rigosertib.
# FIG. 3: The oral absorption and tolerability of Rigosertib administered as single weekly escalating doses in a fasting state were determined in 3 patients. All 3 patients received a 70 mg single oral dose and blood samples for pharmacokinetic analyses were obtained. In the absence of drug-related grade ≥2 toxicity, single dosing was escalated weekly in each patient to 140 mg (week 2), 280 mg (week 3), 560 mg (week 4) and 700 mg (week 5).
# FIG. 4: This is a waterfall plot of 8 patients broken down by French American British classification (FAB) as either Refractory Anemia with Excess Blasts-1 (RAEB-1) or RAEB-2. […] The dosage level of each patient is also provided, as well as the patient history of treatment with Azacytidine. The bone marrow blast reduction is measures as a function of FAB classification, dosage and prior treatment with hypomethylating agents.
# FIG. 10: Transfusion independence. […] Transfusion independence (TI) defined by absence of RBC transfusion for at least 8 consecutive weeks. Erythroid Response (ER) defined by reduction of at least 4 RBC transfusions/8 weeks compared to pretreatment transfusion number in the previous 8 weeks (RBC Tx for Hb<9.0 g/dL).
# Each bar represents one patient. 12 individual MDS patients all categorized as low to intermediate-1 risk (International Prognostic Scoring System—IPSS) and transfusion dependent are shown. […] The decrease in transfusion requirement is plotted for each patient. The absolute differences in red blood cell (RBC) units versus pre-treatment needs are provided.
# A total of 16 patients are plotted against their percentage reduction in need for red blood cell transfusions after treatment versus their pre-treatment needs.
# Safety and efficacy of a novel oral formulation of ON 01910.Na were determined in a dose escalation study in MDS patients refractory to ESA, lenalidomide and DNA Methyltransferase inhibitors.
# ESA was allowed as concomitant medication. The drug dose was escalated based on a defined escalation dose scheme (70, 140, 280, 560, and 700 mg). The drug was administered orally twice a day for 14 days of a 21 day cycle.
# Rigosertib (ON 01910.Na) was used in five clinical trials for myelodysplastic syndrome (MDS) in both intravenous and oral formulations.
# [3] = Phase I/II trials of intravenous Rigosertib in MDS patients: bone marrow blast response and overall survival
# Experimental: According to one embodiment, Rigosertib was given as an intravenous infusion to MDS patients. In one trial, patients received 800 mg Rigosertib for three to five days every other week. According to another embodiment, patients received 650 to 1,700 mg Rigosertib for three to six days every other week. According to yet another embodiment, patients were initially treated with 800 mg to 1,500 mg Rigosertib for two days every week for three weeks followed by one week without treatment. The treatment schedule in these studies was later changed to 1,800 mg Rigosertib for three days every other week.
# In this Example, bone marrow (BM) response and overall survival (OS) were analyzed in 60 patients (pts) with MDS, including 51 patients with refractory anemia and excess blasts (RAEB) and 9 patients with refractory cytopenia and multilineage dysplasia (RCMD) enrolled in 4 independent Phase 1/II clinical trials.
# The patients were treated with Rigosertib administered as a continuous intravenous infusion (CIV) from 2 to 6 days weekly or every other week with BM response initially assessed per protocol by week 4 or 8 and every 8 weeks thereafter. Overall survival (OS) analyses were performed by the method of Kaplan-Meier.
# [4] = Oral administration of Rigosertib 25 mg dose capsule in MDS patients, plasma level
# [5] = iv, 800 mg, 800 mg IV (24 hr infusion)
# [6] = po, 560 mg, 560 mg Oral (Fasting)
# [7] = 8 RAEB-1/RAEB-2 patients, FIG. 4
# [8] = individual patients achieving transfusion independence
# [9] = 39 RAEB-1, 2, t-pts refractory or relapsing after azacitidine/decitabine
# [10] = higher risk MDS patients who had previously failed Vidaza or Dacogen
smiles,measurement,setting,value
"COc1cc(OC)c(/C=C/S(=O)(=O)Cc2ccc(OC)c(NCC(=O)[O-])c2)c(OC)c1.[Na+] [Rigosertib, sodium (E)-2-{2-methoxy-5-[(2′,4′,6′-trimethoxystyrylsulfonyl)methyl]phenylamino}acetate]",decrease of AUC after a meal as compared to fasting conditions,"[1]; 560 mg oral, fed vs fasting",61%
same,decrease of Cmax after a meal as compared to fasting conditions,"[1]; 560 mg oral, fed vs fasting",77%
same,AUC,[1]; [5],52700 ± 19200 ng·h/mL
same,Cmax,[1]; [5],3140 ± 1130 ng/mL
same,Tmax,[1]; [5],2.91 ± 1.3 h
same,half-life,[1]; [5],3.25 ± 0.97 h
same,AUC,[1]; [6],6890 ± 3980 ng·h/mL
same,Cmax,[1]; [6],2420 ± 1260 ng/mL
same,Tmax,[1]; [6],1 ± 0.45 h
same,bioavailability,[1]; [6],34.9 ± 17.6%
same,half-life,[1]; [6],2.79 ± 1.23 h
same,AUC,"[1]; po, 560 mg, 560 mg Oral (Fed)",2710 ± 1510 ng·h/mL
same,Cmax,"[1]; po, 560 mg, 560 mg Oral (Fed)",560 ± 310 ng/mL
same,Tmax,"[1]; po, 560 mg, 560 mg Oral (Fed)",2.82 ± 1.15 h
same,bioavailability,"[1]; po, 560 mg, 560 mg Oral (Fed)",13.8 ± 6.04%
same,half-life,"[1]; po, 560 mg, 560 mg Oral (Fed)",2.61 ± 0.93 h
same,patients with dose limiting toxicity (DLT) during first 3-week cycle,"[2]; 700 mg dose level, dysuria and shortness of breath",One
same,patients responding (bone marrow blast reduction),[2]; [7],6 of 8
same,patients with bone marrow complete response (BM CR),[2]; [7],2
same,patients showing decrease in transfusion dependence based on RBC requirement (absolute differences),"[2]; 12 low to intermediate-1 risk transfusion dependent MDS patients, oral, 8 weeks, FIG. 13",3 of 12
same,patients showing decrease in transfusion dependence based on decrease in percentage of RBC requirement,"[2]; 16 patients, FIG. 14",5 of 16
same,tolerability of oral formulation,"[2]; 70-700 mg orally twice a day, 14 days of a 21 day cycle",well tolerated
same,# Units/56 ds Trt,"[2]; RBC units per 56 days of treatment, individual patients",8.0 and 10.5 (2×) and 3.2 and 3.1 and 0.3 (2×) and 4.4 and 11.6 (2×) and 7.1 and 2.0 and 4.3 and 2.9 and 4.9 and 6.4
same,% Reduction,"[2]; RBC units vs pre-treatment, individual patients",100% and 74% and −68% and −49% and −87% and −45% and −88% and 44% and −41% and −50% and 5% and −29% and −52% and −18% and 7% and −3%
same,# Units during Trt,"[2]; RBC units, individual patients, one table row per patient",2 (4×) and 17 and 10 and 16 (3×) and 13 and 4 (4×) and 21 and 8
same,safe and efficacious dose,"[2]; bid, oral, 14 days of a 21 day cycle",560 mg
same,TX response,"[2]; individual Low-Int-1 risk transfusion dependent MDS patients, 560 or 700 mg bid, one table row per patient",No
same,Duration Tx indep,[2]; [8],16 and 47+ (2×) and 8
same,Onset Tx indep week,[2]; [8],10 and 7 and 6 and 3
same,Cmax as a function of dose,"[2]; single weekly escalating oral doses 70-700 mg, fasting, 3 patients",increased linearly
same,Red RBC Units,"[2]; units/56 days on treatment vs units in 56 days pre-treatment, individual patients",4.0 and 4.5 and −6.8 and −2.9 and −3.7 and −3.6 and −5.7 and 3.6 and −4.9 and −2.0 and 0.5 and −1.7 and −3.1 and −1.1 and 0.4 and −0.4
same,patients still alive at 49 weeks,"[3]; 15 patients refractory/relapsing after hypomethylating agents, 3-day infusions 1800 mg/day every other week",47%
same,N patients with Progressive Disease,[3]; [9],3
same,N patients with Stable BM Response,[3]; [9],14
same,N patients with ≥50% Blast Decrease,[3]; [9],13
same,Median OS,"[3]; 39 pts refractory/relapsing after azacitidine/decitabine, BM response Not Assessed",11 weeks
same,Median OS,"[3]; 39 pts refractory/relapsing after azacitidine/decitabine, Progressive Disease",10 weeks
same,Median OS,"[3]; 39 pts refractory/relapsing after azacitidine/decitabine, Stable BM Response",40 weeks
same,Median OS,"[3]; 39 pts refractory/relapsing after azacitidine/decitabine, ≥50% Blast Decrease",44 weeks
same,N patients with Progressive Disease,"[3]; 51 RAEB-1, 2, t-pts",4
same,N patients with Stable BM Response,"[3]; 51 RAEB-1, 2, t-pts",21
same,N patients with ≥50% Blast Decrease,"[3]; 51 RAEB-1, 2, t-pts",16
same,Median OS,"[3]; 51 RAEB-1, 2, t-pts, BM response Not Assessed",11 weeks
same,Median OS,"[3]; 51 RAEB-1, 2, t-pts, Progressive Disease",13.5 weeks
same,Median OS,"[3]; 51 RAEB-1, 2, t-pts, Stable BM Response",36 weeks
same,Median OS,"[3]; 51 RAEB-1, 2, t-pts, ≥50% Blast Decrease",48 weeks
same,patients with hematological improvements,"[3]; 60 MDS patients, CIV",Nine
same,tolerability of infusions,"[3]; CIV infusions, MDS patients",well tolerated without evidence of bone marrow myelotoxicity
same,median survival,"[3]; Intermediate-1 risk MDS patients, previously failed azacitidine or decitabine",about 77 weeks
same,median survival,"[3]; Intermediate-2 risk MDS patients, previously failed azacitidine or decitabine",about 37 weeks
same,decrease in immature bone marrow cells,[3]; MDS patients who had previously failed azacitidine or decitabine,about 50%
same,decrease or stabilization in the number of immature bone marrow cells (blasts),"[3]; MDS patients, intravenous infusion, in general",≥ 50%
same,Median OS,"[3]; RAEB-1, 17 of 60 MDS patients, CIV",43 weeks
same,Median OS,"[3]; RAEB-2, 21 of 60 MDS patients, CIV",37 weeks
same,Median OS,"[3]; RAEB-T, 13 of 60 MDS patients, CIV",20 weeks
same,Median OS,"[3]; RCMD, 9 of 60 MDS patients, CIV",98 weeks
same,decrease or stabilization in the number of immature bone marrow cells,[3]; [10],≥ 50%
same,median survival,[3]; [10],about 36 weeks
same,half-life,"[4]; human, plasma, po, 25 mg",~10 h
same,plasma peak level,"[4]; oral, 25 mg dose capsule, MDS patients",2 to 4 µM
